In general, solubility refers to the dissolved amount per volume that the medium holds.

The series in a line: Solubility of itraconazole in NMP. In kind it is physicochemical. The conditions noted are these: organic solvent or mixture, room temperature (approximately 22° C.). On the procedure: Sample preparation. […] A 0.20 g/mL drug concentrate solution was prepared by dissolving 2.0 g of itraconazole and 0.2 g Poloxamer 188 in 10 mL NMP with heat and stirring. This solution was then allowed to cool to room temperature to yield a supersaturated solution. A microprecipitation experiment was immediately performed in which 1.5 mL of the drug concentrate was added to 30 mL of an aqueous solution containing 0.1% deoxycholate, 2.2% glycerol. The aqueous solution was maintained at ˜2° C. and a stir rate of 350 rpm during the addition step. The resulting presuspension was homogenized at ˜13,000 psi for approx. 10 minutes at 50° C. The suspension was then centrifuged, the supernatant decanted, and the solid crystals dried in a vacuum oven at 30° C. for 135 hours.

Structures are written as SMILES. Converted amounts (≈) assume the structure as drawn.

Regarding `CCC(C)n1ncn(-c2ccc(N3CCN(c4ccc(OCC5COC(Cn6cncn6)(c6ccc(Cl)cc6Cl)O5)cc4)CC3)cc2)c1=O` (stereo not shown) [itraconazole], the solubility came to 160 mg/mL (≈ 227 mM).

The record behind these values is US8067032B2, “Method for preparing submicron particles of antineoplastic agents” (Baxter International Inc., priority 2000, dated 2011).
